From ChEMBL document CHEMBL5729210, “Benzodiazepine derivatives as RSV inhibitors” (2022)
pEC50: −log10 of the molar value.

Test: RSV-A Assay: The description is Japanese.

`O=C1Nc2ccccc2C(c2ccc(F)cc2)=NC1Nc1nnc(-c2ccc(F)cc2)o1` (stereo not given) and `N#Cc1cccc(C2=NC(Nc3nnc(-c4ccc(F)cc4)o3)C(=O)Nc3ccccc32)c1` (stereo not given) cannot be ordered by pEC50: less than 6.10 for the first, less than 6.10 for the second.

`COCCCc1cc(C(F)(F)F)cnc1C(=O)NN` and `COCCCc1cc(C(F)(F)F)cnc1-c1nnc(N[C@H]2N=C(c3ccccc3)c3ccccc3NC2=O)o1` cannot be ordered by pEC50: less than 6.10 for the first, less than 6.10 for the second.

`COC(C)(C)CNc1cc(C(F)(F)F)cnc1-c1nnc(N[C@H]2N=C(c3ccccc3)c3ccccc3NC2=O)o1` and `COCC(C)(C)Nc1cc(C(F)(F)F)cnc1-c1nnc(N[C@H]2N=C(c3ccccc3)c3ccccc3NC2=O)o1` cannot be ordered by pEC50: less than 6.10 for the first, less than 6.10 for the second.

`O=C1Nc2ccccc2C(c2ccccc2)=N[C@@H]1Nc1nnc(-c2nc3ccccc3nc2N2CCOCC2)o1` and `O=C1Nc2ccccc2C(c2ccccc2)=N[C@@H]1Nc1nnc(-c2cc3ccccc3nc2N2CCOCC2)o1` cannot be ordered by pEC50: greater than 6.40 for the first, greater than 6.40 for the second.

Compared with `Cc1cc(-c2nnc(N[C@H]3N=C(c4ccccc4)c4ccccc4NC3=O)o2)n(C2CCOCC2)n1`, `O=C1Nc2ccccc2C(c2ccccc2)=N[C@@H]1Nc1nnc(-c2cn(C3CCC3)nc2N2CCOCC2)o1` is higher in pEC50: less than 6.10 for the first, greater than 6.40 for the second.

`COc1ccn2ncc(-c3nnc(N[C@H]4N=C(c5ccccc5)c5ccccc5NC4=O)o3)c2c1` and `COCCc1cccn2ncc(-c3nnc(N[C@H]4N=C(c5ccccc5)c5ccccc5NC4=O)o3)c12` cannot be ordered by pEC50: less than 6.10 for the first, less than 6.10 for the second.

`O=C1Nc2ccccc2C(c2ccccc2)=N[C@@H]1Nc1nnc(-c2nc(-c3cccnc3)sc2N2CCOCC2)o1` and `O=C1Nc2ccccc2C(c2ccccc2)=N[C@@H]1Nc1nnc(-c2nc(-c3ccncc3)sc2N2CCOCC2)o1` cannot be ordered by pEC50: greater than 6.40 for the first, greater than 6.40 for the second.

`O=C1Nc2ccccc2C(c2ccccc2)=NC1Nc1cnc(-c2ccc(F)cc2)cn1` (stereo not given) and `O=C1Nc2ccccc2C(c2ccccc2)=NC1Nc1ccc(-c2ccc(F)cc2)nn1` (stereo not given) cannot be ordered by pEC50: less than 6.10 for the first, less than 6.10 for the second.

`O=C1Nc2ccccc2C(c2ccccc2)=NC1Nc1ncc(-c2ccccc2)cn1` (stereo not given) and `O=C1Nc2ccccc2C(c2ccccc2)=NC1Nc1ncc(-c2ccc(F)cc2)o1` (stereo not given) cannot be ordered by pEC50: less than 6.10 for the first, less than 6.10 for the second.

First: O=C1Nc2ccccc2C(c2ccccc2)=N[C@@H]1Nc1nnc(-c2ncc(C(F)(F)F)cc2N[C@H]2CC[C@H]2O)o1
Second: O=C1Nc2ccccc2C(c2ccccc2)=N[C@@H]1Nc1nnc(-c2ncc(C(F)(F)F)cc2NC[C@H]2CCCO2)o1
The pEC50 of the first is lower: less than 6.10 for the first, greater than 6.40 for the second. The second is the more potent here.

`O=C1Nc2ccccc2C(c2ccccc2)=N[C@@H]1Nc1nnc(-c2nc(-c3ccccc3F)sc2N2CCOCC2)o1` and `O=C1Nc2ccccc2C(c2ccccc2)=N[C@@H]1Nc1nnc(-c2nc(-c3ccc(F)cc3)sc2N2CCOCC2)o1` cannot be ordered by pEC50: greater than 6.40 for the first, greater than 6.40 for the second.

`N#Cc1cnc(-c2nnc(N[C@H]3N=C(c4ccccc4)c4cccc(F)c4NC3=O)o2)c(N2CCOCC2)c1` and `O=C1Nc2c(F)cccc2C(c2ccccc2)=N[C@H]1Nc1nnc(-c2ncc(C(F)(F)F)cc2N2CCOCC2)o1` cannot be ordered by pEC50: greater than 6.40 for the first, greater than 6.40 for the second.

`C#Cc1nc(C(=O)O)c(N2CCOCC2)s1` and `COC(=O)c1cc(C2CC2)sc1N1CCOCC1` cannot be ordered by pEC50: greater than 6.40 for the first, greater than 6.40 for the second.

Going from `COc1ccc(-c2ccc(NC3N=C(c4ccccc4)c4ccccc4NC3=O)nn2)cc1` (stereo not given) to `N#Cc1ccc(-c2ccc(NC3N=C(c4ccccc4)c4ccccc4NC3=O)nn2)cc1` (stereo not given), the pEC50 rises from less than 6.10 to greater than 6.40. The second is the more potent here.

`CCOC(=O)c1nc(-c2ccc(C(F)(F)F)nc2)sc1N1CCOCC1` and `CCOC(=O)c1nc(-c2ccc(F)cn2)sc1N1CCOCC1` cannot be ordered by pEC50: greater than 6.40 for the first, greater than 6.40 for the second.

`CCOC(=O)c1nc(-c2cnn(C)c2)sc1N1CCOCC1` and `CCOC(=O)c1cn(CC)nc1N1CCOCC1` cannot be ordered by pEC50: greater than 6.40 for the first, greater than 6.40 for the second.

`COCCn1ccc2cccc(C(=O)OC)c21` and `CCOC(=O)c1ccnc2ccc(COC)cc12` cannot be ordered by pEC50: less than 6.10 for the first, less than 6.10 for the second.

`O=C1Nc2ccccc2C(c2ccccc2)=N[C@@H]1Nc1nnc(-c2nc(C3CCCCC3)sc2N2CCOCC2)o1` and `O=C1Nc2ccccc2C(c2ccccc2)=N[C@@H]1Nc1nnc(-c2nc(C3CCC3)sc2N2CCOCC2)o1` cannot be ordered by pEC50: greater than 6.40 for the first, greater than 6.40 for the second.

`O=C1Nc2ccccc2C(c2ccccc2)=NC1Nc1nnc(-c2ccc(F)cc2)[nH]1` (stereo not given) and `O=C1Nc2ccccc2C(c2ccccc2)=NC1Nc1nnc(-c2ccncc2)[nH]1` (stereo not given) cannot be ordered by pEC50: less than 6.10 for the first, less than 6.10 for the second.

`O=C1Nc2ccccc2C(c2ccccc2)=NC1Nc1ccc(-c2ccccc2N2CCOCC2)nn1` (stereo not given) and `O=C1Nc2ccccc2C(c2ccccc2)=NC1Nc1nnc(-c2ccccc2N2CCOCC2)[nH]1` (stereo not given) cannot be ordered by pEC50: less than 6.10 for the first, less than 6.10 for the second.

`COCCn1cc(-c2nnc(N[C@H]3N=C(c4ccccc4)c4ccccc4NC3=O)o2)c(N2CCOCC2)n1` and `CC(C)n1cc(-c2nnc(N[C@H]3N=C(c4ccccc4)c4ccccc4NC3=O)o2)c(N2CCOCC2)n1` cannot be ordered by pEC50: greater than 6.40 for the first, greater than 6.40 for the second.

`COCC1(Nc2cc(C(F)(F)F)cnc2-c2nnc(N[C@H]3N=C(c4ccccc4)c4ccccc4NC3=O)o2)CC1` and `CC1(Nc2cc(C(F)(F)F)cnc2-c2nnc(N[C@H]3N=C(c4ccccc4)c4ccccc4NC3=O)o2)CCOC1` (stereo not given in full) cannot be ordered by pEC50: less than 6.10 for the first, less than 6.10 for the second.

`O=C1Nc2ccccc2C(c2ccccc2)=N[C@@H]1Nc1nnc(-c2cn(-c3ccccn3)nc2N2CCOCC2)o1` and `O=C1Nc2ccccc2C(c2ccccc2)=NC1Nc1nnc(-c2nc(Br)sc2N2CCOCC2)o1` (stereo not given) cannot be ordered by pEC50: greater than 6.40 for the first, greater than 6.40 for the second.

Going from `O=C1Nc2ccccc2C(c2ccccc2)=NC1Nc1nnc(C2CC2)[nH]1` (stereo not given) to `CSC(=N)NC1N=C(c2ccccc2)c2ccccc2NC1=O` (stereo not given), the pEC50 rises from less than 6.10 to greater than 6.40.

First: CCOC(=O)c1ccnc2ccc(OC)cc12
Second: CCOC(=O)c1cn(-c2cccnc2)nc1N1CCOCC1
The pEC50 of the first is lower: less than 6.10 for the first, greater than 6.40 for the second. The second is the more potent here.

`O=C1Nc2ccccc2C(c2ccccc2)=NC1Nc1ccc(-c2ccncc2)nn1` (stereo not given) and `O=C1Nc2ccccc2C(c2ccccc2)=NC1Nc1ncc(-c2ccc(Br)cc2)o1` (stereo not given) cannot be ordered by pEC50: less than 6.10 for the first, less than 6.10 for the second.

`O=C1Nc2ccccc2C(c2ccccc2)=N[C@@H]1Nc1nnc(-c2cc(C(F)(F)F)sc2N2CCOCC2)o1` and `CC(F)(F)c1nc(-c2nnc(N[C@H]3N=C(c4ccccc4)c4ccccc4NC3=O)o2)c(N2CCOCC2)s1` cannot be ordered by pEC50: greater than 6.40 for the first, greater than 6.40 for the second.

Going from `O=C1Nc2c(Cl)cccc2C(c2ccccc2)=NC1Nc1nnc(-c2ccccc2N2CCOCC2)o1` (stereo not given) to `CCc1nc(-c2nnc(N[C@H]3N=C(c4ccccc4)c4ccccc4NC3=O)o2)c(N2CCOCC2)s1`, the pEC50 rises from less than 6.10 to greater than 6.40.

`COCCCc1sc(C(F)(F)F)nc1-c1nnc(N[C@H]2N=C(c3ccccc3)c3ccccc3NC2=O)o1` and `COC[C@@H]1C[C@H]1c1sc(C(F)(F)F)nc1-c1nnc(N[C@H]2N=C(c3ccccc3)c3ccccc3NC2=O)o1` cannot be ordered by pEC50: less than 6.10 for the first, less than 6.10 for the second.

Work on `O=C1Nc2ccccc2C(c2ccccc2)=N[C@@H]1Nc1nnc(-c2ncc(C(F)(F)F)cc2NCc2ccco2)o1` yielded a pEC50 of less than 6.10.

For `O=C1Nc2ccccc2C(c2ccccc2)=N[C@@H]1Nc1nnc(-c2ncc(C(F)(F)F)cc2NC[C@@H]2CCCO2)o1`, the EC50 was “in the range around 600 nM”.
With `O=C1Nc2ccccc2C(c2cccc(F)c2)=NC1Nc1nnc(-c2ccc(F)cc2)o1` (stereo not given) the EC50 was “in the range around 600 nM”.
With `N#Cc1ccc(-c2nnc(NC3N=C(c4ccccc4)c4ccccc4NC3=O)[nH]2)cc1` (stereo not given) the EC50 was “in the range around 600 nM”.
In the case of `N#Cc1ccc(-c2cnc(NC3N=C(c4ccccc4)c4ccccc4NC3=O)o2)cc1` (stereo not given), the EC50 was “in the range around 600 nM”.
In the case of `O=C1Nc2ccccc2C(c2ccccc2)=N[C@@H]1Nc1nnc(-c2ncc(C(F)(F)F)cc2N[C@@H]2CCC[C@@H]2O)o1`, the EC50 was “in the range around 600 nM”.
In the case of `O=C1Nc2ccccc2C(c2ccccc2)=N[C@@H]1Nc1nnc(-c2ncc(C(F)(F)F)cc2N[C@H]2CCC[C@H]2O)o1`, the EC50 was “in the range around 600 nM”.
